Assay results from article PMC11882969 (Nature Communications, 2025).
Values joined by “and” are separate entries in the source; they are usually repeats but may differ in a detail not shown here. Identical values can stand only once.

Tests used:
hCB2 = hCB2 (Homo sapiens, UniProt P34972); assay: TRUPATH BRET2 GoA dissociation, HEK293T; format: cell-based; design: expressed in transfected cells; host or cells: HEK293T cells (ATCC: CRL-3216), transient co-transfection; conditions: for functional response, concentration-response point (FigS7e, normalized): Log[drug], replicate columns
hCB1 = hCB1 (Homo sapiens, UniProt P21554); assay: Tango β-arrestin-2 recruitment, HTLA cells, CB1R; format: cell-based; design: expressed in transfected cells; host or cells: HTLA cells (gift of R. Axel), transient transfection
Malate dehydrogenase = assay: Enzyme inhibition counter-screen, MDH; format: biochemical; conditions: Rep 1-3 mean; sheet FigureS2c
Method: Enzyme inhibition assays to test for colloidal inhibition were performed at room temperature using CLARIOstar Plate Reader (BMG Labtech). Samples were prepared in 50 mM KPi buffer, pH 7.0 with final DMSO concentration at 1% (v/v). Compounds were incubated with 2 nM AmpC β-lactamase (AmpC) or Malate dehydrogenase (MDH) for 5 min. AmpC reactions were initiated by the addition of 50 μM CENTA chromogenic substrate (219475, Calbiochem). […] MDH reactions were initiated by the addition of 200 μM nicotinamide adenine dinucleotide (NADH) (54839, Sigma Aldrich) and 200 μM oxaloacetic acid (324427, Sigma Aldrich). The change in absorbance was monitored at 340 nm for 60 sec. Initial rates were divided by the DMSO control rate to determine % enzyme activity. Each compound was screened at 100μM in triplicate for three independent experiments, if enzyme inhibition greater than 30% was observed, 8-point half-log concentrations were performed in triplicate for three independent experiments. Data was analyzed using GraphPad Prism 9.1.

[1] = Dynamic light scattering, colloidal aggregation; format: physicochemical; conditions: Log[compound, replicates, sheet FigS2b
Method: Samples were prepared as 8-point half-log dilutions in filtered 50 mM KPi buffer, pH 7.0 with final DMSO concentration at 1% (v/v). Colloidal particle formation was measured using DynaPro Plate Reader II (Wyatt Technologies). All compounds were screened in triplicate.

Sequence of hCB1 (P21554 whole entry): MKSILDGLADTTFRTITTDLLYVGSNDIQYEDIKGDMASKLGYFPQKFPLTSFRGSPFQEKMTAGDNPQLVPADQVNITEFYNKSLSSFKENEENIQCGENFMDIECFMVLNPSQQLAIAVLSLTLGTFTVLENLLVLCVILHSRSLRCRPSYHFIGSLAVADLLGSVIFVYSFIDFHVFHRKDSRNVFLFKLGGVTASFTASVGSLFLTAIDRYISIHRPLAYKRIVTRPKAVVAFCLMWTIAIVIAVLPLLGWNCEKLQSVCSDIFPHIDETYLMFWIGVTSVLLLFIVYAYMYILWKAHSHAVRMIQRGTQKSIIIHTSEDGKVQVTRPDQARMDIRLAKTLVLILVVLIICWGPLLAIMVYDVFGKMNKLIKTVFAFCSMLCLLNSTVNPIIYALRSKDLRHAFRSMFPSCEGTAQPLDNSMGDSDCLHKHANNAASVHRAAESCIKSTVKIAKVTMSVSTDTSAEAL
Sequence of hCB2 (P34972 whole entry): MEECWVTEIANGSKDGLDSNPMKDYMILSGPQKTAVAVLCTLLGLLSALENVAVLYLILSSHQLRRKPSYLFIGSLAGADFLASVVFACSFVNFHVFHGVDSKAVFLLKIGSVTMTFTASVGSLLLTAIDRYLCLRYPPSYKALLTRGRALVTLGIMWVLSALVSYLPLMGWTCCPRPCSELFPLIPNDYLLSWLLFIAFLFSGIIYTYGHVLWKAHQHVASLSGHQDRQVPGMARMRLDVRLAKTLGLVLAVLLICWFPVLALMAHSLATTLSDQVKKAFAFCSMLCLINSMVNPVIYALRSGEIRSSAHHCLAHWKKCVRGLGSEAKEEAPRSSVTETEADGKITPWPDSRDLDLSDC

COC(=O)C(C)(NC(=O)c1cc(C)n(-c2cccc(C(F)(F)F)c2)n1)c1cccs1 (centres unmarked) [‘4042]
BRET2 + GoA pEC50 (hCB2): 8.1 [7.4 – 8.8]
Emax (hCB2; HEK-293T): 29%
functional response, concentration-response point (FigS7e, normalized) (hCB2; M = -5.52): 35.163 and 34.5195 and 37.1398 and 45.2359 and 22.1885 and 20.0253 and 22.0647 and 22.44 and 27.1274 and 29.7176 and 29.0627 and 31.2724
functional response, concentration-response point (FigS7e, normalized) (hCB2; M = -6): 29.7877 and 33.9492 and 29.5334 and 25.2255 and 15.8228 and 16.2963 and 15.9211 and 20.153 and 25.0506 and 24.2718 and 28.0892 and 24.4694
functional response, concentration-response point (FigS7e, normalized) (hCB2; M = -6.52): 26.0116 and 28.0846 and 25.607 and 31.5062 and 14.9093 and 14.0547 and 17.0527 and 13.1077 and 21.8115 and 21.8852 and 20.2922 and 24.9916
functional response, concentration-response point (FigS7e, normalized) (hCB2; M = -7): 24.1274 and 22.8405 and 29.7761 and 21.8695 and 14.0743 and 11.9997 and 13.5282 and 12.4358 and 19.7258 and 19.481 and 19.1064 and 19.4486
functional response, concentration-response point (FigS7e, normalized) (hCB2; M = -7.52): 23.5957 and 22.9137 and 20.3707 and 18.5906 and 11.4339 and 9.937 and 10.3691 and 10.8406 and 16.0355 and 14.8408 and 13.0297 and 14.2214
functional response, concentration-response point (FigS7e, normalized) (hCB2; M = -8): 12.8343 and 12.3797 and 11.0928 and 9.008 and 8.006 and 4.9629 and 4.745 and 4.187 and 11.3719 and 9.991 and 9.086 and 7.272
functional response, concentration-response point (FigS7e, normalized) (hCB2; M = -8.52): 3.796 and 2.717 and 4.595 and 4.6603 and 1.822 and 2.459 and 1.412 and 2.158 and 3.296 and 4.616 and 3.0209 and 3.939
functional response, concentration-response point (FigS7e, normalized) (hCB2; M = -11.52): -0.1711 and -0.00125 and 0.5633 and 1.428
functional response, concentration-response point (FigS7e, normalized) (hCB2; M = -12): 0.1237 and -0.6757 and -0.301 and 0.8531 and -0.1904 and 0.4719 and -0.17 and -0.1114 and 0.2132 and -0.01243 and 0.1138 and -0.3146
Emax (hCB1; HTLA, hCB1, read-out: Tango ß-arrestin recruitment Emax): 102%
response, replicate values of concentration-response curve (FigS7f) (hCB1; Log[drug], M = -4.52): 7.067 and -6.331 and 5.4951 and 8.221 and 8.314 and -13.0772 and 26.9747 and 17.871 and 12.4553 and 121.329 and 105.672 and 117.884
response, replicate values of concentration-response curve (FigS7f) (hCB1; Log[drug], M = -5): -3.086 and 3.974 and -30.8966 and 0.657 and 12.6131 and 6.151 and 33.0168 and 23.9031 and -6.308 and 64.2077 and 47.075 and 77.367
response at Log[drug], M -5 (FigS4e) (hCB1; Log[drug], M = -5, individual replicates): 105.219 and 109.279 and 117.533 and 125.309 and 97.6126 and 107.099 and 99.9992 and 108.6 and 92.9311 and 106.141 and 96.6922 and 121.582
response, replicate values of concentration-response curve (FigS7f) (hCB1; Log[drug], M = -5.52): -43.7244 and -3.669 and 10.2865 and 56.4831 and 26.3341 and 31.5757 and 34.4515 and 25.7521 and 21.276 and 49.6996 and 52.3788 and 22.9617
response at Log[drug], M -5.52 (FigS4e) (hCB1; Log[drug], M = -5.52, individual replicates): 101.394 and 114.732 and 120.488 and 108.55 and 90.8381 and 89.995 and 132.472 and 109.506 and 88.5962 and 99.4965 and 84.8551 and 98.2296
response, replicate values of concentration-response curve (FigS7f) (hCB1; Log[drug], M = -6): 45.905 and 18.3989 and 8.994 and 37.6798 and 48.3885 and 1.626 and 39.9683 and 51.123 and 11.4551 and 62.3486 and 38.1624 and 52.7798
response at Log[drug], M -6 (FigS4e) (hCB1; Log[drug], M = -6, individual replicates): 110.2 and 110.608 and 113.923 and 102.851 and 70.7652 and 82.3944 and 91.1468 and 90.7286 and 85.6996 and 85.6798 and 84.3272 and 95.3395
response, replicate values of concentration-response curve (FigS7f) (hCB1; Log[drug], M = -6.52): 48.7063 and 31.7717 and 10.7428 and 2.793 and 31.788 and 27.608 and 19.4978 and 35.1184 and 41.787 and 72.0632 and 23.3444 and 56.7531
response at Log[drug], M -6.52 (FigS4e) (hCB1; Log[drug], M = -6.52, individual replicates): 101.401 and 93.7884 and 111.126 and 102.386 and 76.6593 and 76.4337 and 80.9673 and 77.6716 and 90.47 and 82.2224 and 76.8121 and 78.3428
response, replicate values of concentration-response curve (FigS7f) (hCB1; Log[drug], M = -7): 45.8923 and 39.1109 and -32.4811 and 3.271 and 1.931 and -6.456 and 21.6196 and 13.8396 and 19.3159 and 108.005 and 18.4598 and 4.043
response at Log[drug], M -7 (FigS4e) (hCB1; Log[drug], M = -7, individual replicates): 101.996 and 90.2881 and 92.9617 and 98.4638 and 67.7319 and 66.2817 and 76.3076 and 71.3692 and 69.3631 and 70.7817 and 73.5528 and 86.8411
response, replicate values of concentration-response curve (FigS7f) (hCB1; Log[drug], M = -7.52): 6.205 and 16.8525 and 13.7723 and 78.1261 and 25.2327 and 15.4263 and 3.028 and 19.2351 and -2.458 and 66.2308 and 22.6883 and 80.2832
response at Log[drug], M -7.52 (FigS4e) (hCB1; Log[drug], M = -7.52, individual replicates): 85.8169 and 81.0399 and 77.0438 and 77.8353 and 74.3661 and 62.598 and 69.4576 and 65.014 and 61.4855 and 54.8485 and 65.2396 and 54.8221
response at Log[drug], M -8 (FigS4e) (hCB1; Log[drug], M = -8, individual replicates): 64.9332 and 70.1108 and 76.4142 and 63.9273 and 43.1923 and 49.5865 and 49.0423 and 55.5064 and 60.3508 and 56.2009 and 53.2123 and 59.8164
response at Log[drug], M -8.52 (FigS4e) (hCB1; Log[drug], M = -8.52, individual replicates): 34.3417 and 29.1931 and 35.2401 and 27.4328 and 27.4461 and 34.6615 and 20.0846 and 24.5419 and 29.6463 and 23.9316 and 26.0874 and 20.4241
response at Log[drug], M -9 (FigS4e) (hCB1; Log[drug], M = -9, individual replicates): 11.2308 and 14.9426 and 16.0188 and 14.8879 and 7.81 and 6.201 and 6.046 and 5.165 and 11.416 and 8.011 and 9.8505 and 11.4417
response, replicate values of concentration-response curve (FigS7f) (hCB1; Log[drug], M = -9.52): -8.017 and 13.4427 and 7.219 and 1.3736
response at Log[drug], M -9.52 (FigS4e) (hCB1; Log[drug], M = -9.52, individual replicates): 4.318 and 6.954 and 4.569 and 9.019 and 2.48 and 0.9701 and 1.146 and -0.2947 and 2.2712 and 3.563 and 2.22 and 2.613
response, replicate values of concentration-response curve (FigS7f) (hCB1; Log[drug], M = -10): -5.634 and 19.8566 and -6.166 and -19.951 and 12.6927 and 1.918 and 26.5806 and 27.9648 and -15.2597 and 16.5278 and -42.7439 and -28.9284
response at Log[drug], M -10 (FigS4e) (hCB1; Log[drug], M = -10, individual replicates): 4.678 and 4.596 and 5.116 and 5.805 and 0.4668 and 1.099 and -0.9271 and 0.03226 and 4.179 and 1.0137 and 3.024 and 3.033
response at Log[drug], M -10.52 (FigS4e) (hCB1; Log[drug], M = -10.52, individual replicates): 3.333 and 5.039 and 5.463 and 7.136 and 2.136 and 1.073 and 1.405 and 1.689 and 0.06416 and 3.135 and 1.262 and 0.6116
response at Log[drug], M -11 (FigS4e) (hCB1; Log[drug], M = -11, individual replicates): 2.02 and 1.728 and 3.648 and 1.714 and 2.136 and 0.5313 and 2.282 and 1.392 and 2.442 and 2.186 and 2.656 and 2.784
response at Log[drug], M -11.52 (FigS4e) (hCB1; Log[drug], M = -11.52, individual replicates): 0.1596 and 0.8162 and 2.015 and 2.59 and 0.7808 and -0.157 and 2.17 and 1.37 and 0.3122 and 1.493 and -1.27 and 0.3892
response at Log[drug], M -12 (FigS4e) (hCB1; Log[drug], M = -12, individual replicates): -1.281 and 1.1992 and 0.1003 and -0.01824 and -0.4194 and -1.323 and 0.4797 and 1.263 and -0.586 and -0.201 and 1.578 and -0.7913
Tango ß-arrestin recruitment pEC50 (hCB1; hCB1): 8.0 [7.9 – 8.1]
EC50 (hCB1; hCB1, read-out: Tango ß-arrestin recruitment EC50): 10.7 nM

COC(=O)C(NC(=O)c1cc(C)n(-c2cccc(F)c2)n1)c1cccs1 (centres unmarked) [‘51486]
MDH activity (DMSO = 100), replicate means (Malate dehydrogenase): 74.7583 and 87.0115 and 96.3724
DLS scattering intensity ([1]; uM] 0): 759657 and 686584 and 965322
DLS scattering intensity ([1]; uM] 0.5): 1020197 and 797976 and 985220
DLS scattering intensity ([1]; uM] 1): 599581 and 807564 and 813072
DLS scattering intensity ([1]; uM] 1.49996): 1081636 and 666504 and 646696
DLS scattering intensity ([1]; uM] 2): 2657372 and 4460546 and 3577303
DLS scattering intensity ([1]; uM] -0.500011): 732851 and 712729 and 950123
DLS scattering intensity ([1]; uM] -1): 747604 and 1271629 and 624256
DLS scattering intensity ([1]; uM] -1.5): 774618 and 1013605 and 787428
